Source: US20080292699A1, “SOLID PHARMACEUTICAL DOSAGE UNIT FOR A[…] OF RHINORRHEA” (SOVEREIGN PHARMACEUTICALS, LTD., priority 2007, published 2008)
Where a name gives a salt, the structure may show the parent alone.

Test: Dissolution testing of the bi-layered tablet (USP I, baskets, 0.01 N HCl)
Assay type: physicochemical
Settings: 500 mL 0.01 N HCl, 37° C., 100 rpm, average of six tablets
[1] = Time 2 hr, sustained release layer
[2] = Time 4 hr, sustained release layer
[3] = Time 8 hr, sustained release layer

Method: Place 500 mL (+/−5 mL) of 0.01 N HCl in each vessel of the dissolution apparatus (USP I, baskets). Allow media to equilibrate to 37° C.+/−0.5° C. […] Select 6 tablets at random and record weight of each tablet. […] Put one tablet into each basket. Turn dissolution apparatus on to a rate of 100 rpm. […] Withdraw samples through a 45 μm porous polyethylene filter disc (Whatman GE/X or Millipore Millex-GN) at 45 minutes, 2, 4 and 8 hours. […] Inject filtered samples into a gas chromatograph, injecting one standard (as used for calibration) after every six samples. Gas Chromatography: Instrument: Waters Alliance 2695 Separation Module Column: Waters μBondapak C18 Column, 10 μm, 3.9×300 mm; PN WAT027324 Column Temperature: 52° C. Flow Rate: 1.8 mL per minute Injection Volume: 200 μL Detector: UV at 257 nm Mobile Phase: A: Methanol • B: Pic-B8 (for every liter of Pic-B8 aqueous solution, dissolve 2.164 g of 1-octanesulfonic acid sodium salt in water and add 20 mL of glacial acetic acid) [table]

Average Amount Released [%] [1] | Average Amount Released [%] [2] | Average Amount Released [%] [3] | Molecule | Average Amount Released [%] (Time 45 min, immediate release layer)
43.6% | 65.8% | 89.0% | CNC[C@H](O)c1cccc(O)c1 [PEH, Phenylephrine HCl] | 
33.3% | 57.1% | 87.0% | CN(C)CCC(c1ccc(Cl)cc1)c1ccccn1 (stereo not shown) [CPM, Chlorpheniramine Maleate] | 
 |  |  | Methscopolamine Nitrate [MSPN] | 100.2%
